Where “and” joins values, the source holds several entries; their conditions need not be identical. Equal values may be shown once.
Conditions: Liquid, Transpiration method

CCOCCN=[N+]=[N-] [(azidoethoxy)ethane]
Conditions	vapor or sublimation pressure [kPa]
274.1 K	0.2423
275.7 K	0.2804
277.1 K	0.3181
277.9 K	0.3191
278.7 K	0.3325
279.4 K	0.3333
280.2 K	0.3892
281.5 K	0.4113
282.4 K	0.4364
283.2 K	0.4705
284.8 K	0.5331
286.2 K	0.5994
287.8 K	0.6765
289.2 K	0.7246
290.7 K	0.7842
292.2 K	0.8444
292.3 K	0.8535
293.7 K	0.9715
295.2 K	1.061
296.7 K	1.173
298.2 K	1.313
300.7 K	1.55

[N-]=[N+]=NC1CCCC1 [cyclopentyl azide]
Conditions	vapor or sublimation pressure
275.5 K	0.3701 kPa
279.2 K	0.4454 kPa
281.3 K	0.48 kPa
283.2 K	0.5664 kPa
285.3 K	0.6268 kPa
287 K	0.722 kPa
288.7 K	0.7419 kPa
291.1 K	0.8591 kPa
293 K	0.9879 kPa and 0.9833 kPa
295.1 K	1.102 kPa
295.8 K	1.1 kPa
297.2 K	1.342 kPa
298.5 K	1.418 kPa
299.1 K	1.45 kPa
300.8 K	1.466 kPa
301.1 K	1.615 kPa
303.1 K	1.88 kPa
303.3 K	1.899 kPa
305.8 K	1.953 kPa
306.1 K	2.066 kPa
308.2 K	2.239 kPa
310.7 K	2.494 kPa
313.3 K	2.898 kPa
317.9 K	3.913 kPa
323.1 K	4.896 kPa
327.7 K	5.951 kPa
333.4 K	7.854 kPa

[N-]=[N+]=NCCO [2-azidoethanol]
Conditions	vapor or sublimation pressure [kPa]
284.6 K	0.021
287.3 K	0.0267
288.8 K	0.0298
291.8 K	0.0398
294.8 K	0.052
297.7 K	0.0664
300.7 K	0.088
303.6 K	0.1076
306.6 K	0.1398
309 K	0.1676
309.6 K	0.1718
312 K	0.2073
312.6 K	0.2168
316 K	0.2782
316.1 K	0.2882

[N-]=[N+]=NC1CCCCC1 [azidocyclohexane]
Conditions	vapor or sublimation pressure [kPa]
279.6 K	0.0856
281.6 K	0.1002
283.4 K	0.1159
285.3 K	0.1366
286.6 K	0.1432
287.2 K	0.1571
288.9 K	0.1754
290.2 K	0.1885
291.9 K	0.2153
293.2 K	0.231
295.5 K	0.2749
297.1 K	0.3013
298.3 K	0.3332
300.1 K	0.3875
301.3 K	0.3917
303.1 K	0.4574

CCOC(=O)CN=[N+]=[N-] [ethyl azidoacetate]
Conditions	vapor or sublimation pressure [kPa]
301.4 K	0.1784
304.8 K	0.2378
308.3 K	0.3083
314.3 K	0.4549
320.2 K	0.6452
323.2 K	0.7874
326.2 K	0.9687
332.2 K	1.38
338.1 K	1.929
341.1 K	2.397
344.3 K	2.714

CC(=O)OC1CCCC1 [cyclopentyl ethanoate]
Conditions	vapor or sublimation pressure [kPa]
274.1 K	0.0795
276.1 K	0.0894
278.2 K	0.1067
281.3 K	0.1295
283.2 K	0.1597
286.3 K	0.1983
288.4 K	0.2248
291.2 K	0.278
293.2 K	0.3029
296.4 K	0.4022
298.2 K	0.4443
303.2 K	0.6114
308.4 K	0.8519

[N-]=[N+]=NCSc1ccccc1 [azidomethyl phenyl sulfide]
Conditions	vapor or sublimation pressure [kPa]
299.6 K	0.00448
303.5 K	0.0064
307.3 K	0.00918
310.3 K	0.01158
313.3 K	0.01502
316.2 K	0.01866
319.2 K	0.02463
324.2 K	0.03511

— the NIST ThermoML archive (doi:10.1016/j.jct.2011.05.028)
